The record followed here is paper PMC5514153, “Targeting PTPRZ inhibits stem cell-like properties and tumorigenicity in glioblastoma cells” (Scientific Reports, 2017).

Assay [1] deals with T1, hPTPN1 (Homo sapiens, UniProt P18031).
T1 construct: the catalytic domains of PTPN1 and PTPN6 were expressed as glutathione-S-transferase (GST) fusion proteins; GST (N); made in house; host or cells: Escherichia coli BL21
T1 sequence (P18031 3-277 limits assumed): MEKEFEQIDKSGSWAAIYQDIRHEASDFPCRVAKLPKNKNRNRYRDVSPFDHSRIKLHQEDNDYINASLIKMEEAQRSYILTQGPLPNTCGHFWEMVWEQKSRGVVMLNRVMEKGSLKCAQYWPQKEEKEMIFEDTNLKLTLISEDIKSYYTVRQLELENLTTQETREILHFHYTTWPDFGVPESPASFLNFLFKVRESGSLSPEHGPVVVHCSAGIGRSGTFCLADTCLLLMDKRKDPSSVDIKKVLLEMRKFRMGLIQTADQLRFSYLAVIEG
As to the kind of experiment: In vitro PTPase assay (DiFMUP), PTPN1. The format is biochemical. The settings on record: 60-min preincubation. On the procedure: Figure 4 NAZ2329, an allosteric inhibitor of R5 RPTP subfamily members. (A) Structure of NAZ2329. (B) Effect of preincubation of NAZ2329 on its inhibitory activity against PTPRZ. Recombinant human PTPRZ1 enzyme (the whole intracellular region) was premixed with NAZ2329 for the indicated times and followed by addition of a fluorogenic DiFMUP (non-specific PTP substrate, 6,8-difluoro-4-methylumbiliferyl phosphate) to measure PTP inhibitory activity. (C) Time dependence. The PTPRZ1 enzyme was added to the inhibitor–substrate mixture, and the inhibitory activity was determined at each time point relative to the vehicle control. (D) Reversibility of inhibition. […] The mixture was then 20-fold diluted, and recovered PTP activity was expressed as the relative activity compared with the vehicle-treated enzyme. […] PTPRZ1 enzymes were preincubated with NAZ2329 for 60 min, and the PTP activity was measured using DiFMUP. […]
Recombinant proteins corresponding to the entire intracellular regions (ICRs) of PTPRZ1, PTPRA, and PTPRM were expressed using a baculovirus-silkworm expression system, and purified as described. The ICRs of PTPRG, PTPRS, and PTPRB and the catalytic domains of PTPN1 and PTPN6 were expressed as glutathione-S-transferase (GST) fusion proteins from each pGEX plasmid in Escherichia coli strain BL21 (ref. [6]). […]

The test system of assay [2] is C6 cells. As to the kind of experiment: Sphere formation, SOX2 expression and self-renewal, C6 cells. Type of assay: cell-based, rat. On the procedure: Figure 7 Cellular effects of NAZ2329 on the malignant phenotypes of C6 cells. (A) Phosphorylation of paxillin at Tyr-118. C6 cells were incubated with NAZ2329 for the indicated periods. Immunoprecipitated paxillin was analyzed by Western blotting using anti-pY118-paxillin and anti-paxillin. Blots are representative of five independent cultures. […] (B) Cell proliferation assay. C6 cells were incubated for 48 h with NAZ2329 in normal medium containing 2% FBS. […] (C) Boyden chamber assay. Cells were allowed to migrate for 3 h. DAPI-stained nuclei are shown before (total) and after (migrated) the removal of cells remaining in the top chamber. Scale bars, 100 µm. […] (D,E) Sphere formation (D) and SOX2 expression (E). C6 cells were cultured in CSC medium for 7 days with indicated concentrations of NAZ2329. Images are representative of five independent cultures. Scale bars, 100 µm. […] (F) Self-renewal of C6 spheres. C6 spheres were initially developed in CSC medium for 7 days, followed by an incubation with NAZ2329 in CSC medium for 5 days. Images are representative of five independent cultures. Scale bars, 100 µm. […] Full-length blots and gels are presented in Supplementary Fig. S7.
Cells were inoculated at 5 × 10^3 cells per 96-well uncoated polystyrene plate (# 9018, Corning) or 5 × 10^4 cells per 35-mm plastic petri dish (#351008, Corning), and cultured in a serum-free medium containing DMEM/F12 with 1x B27 supplement (#17504044, Thermo Fisher Scientific), EGF (20 ng/ml), and basic fibroblast growth factor (bFGF, 20 ng/ml, #064-05381, Wako pure chemical). After a 7-day culture, cells were fixed with 10% neutral formalin and pictured under a conventional microscope. The number of spheroids of approximately 70 µm in diameter were counted manually using Adobe Photoshop CS6 (Adobe).

Broadly, the IC50 is the concentration that inhibits the measured activity by half. A high value points to a need for much substance. On to `CCOc1ccc(C(F)(F)F)cc1CSc1ccsc1C(=O)NS(=O)(=O)c1ccccc1` [NAZ2329], for which the IC50 in assay [1] amounted to 14.5 µM. Further, in assay [2] (C6 cells, CSC medium, 7 days), the SOX2 expression entry is given as “decrease in SOX2 expression” and the sphere formation result is on record as “dose-dependently inhibited sphere formation”. Also, the “self-renewal of sphere-forming cells” value in assay [2] (C6 spheres, 5 days with compound) is on record as “suppressed self-renewal”.
